Test results taken from US9334256B2, “Agents and methods for treating ischemic and other diseases” (NoNO INC., priority 2011, dated 2016).

Columns and labels:
[1] = system: rats subjected to lateral FPI; experiment: Rotarod performance after lateral FPI; assay type: in vivo, rat; conditions: FIG. 4A
Text: Thus, M21 and TRPM7 inhibitors are effective treatments to reduce the damaging effects of neurotrauma, including concussions.

TRPM7 = molecular target: T1, TRPM7 (Mus musculus, UniProt Q923J1); experiment: PI uptake cell death assay in TRPM7-expressing HEK-293 cells (type of assay from Example 1); assay type: cell-based, murine; conditions: Table X
T1 construct: expressed in transfected cells; host or cells: HEK-293 tSA (HEK-293T) cells, transient transfection with Lipofectamine 2000
T1 sequence (Q923J1 whole entry): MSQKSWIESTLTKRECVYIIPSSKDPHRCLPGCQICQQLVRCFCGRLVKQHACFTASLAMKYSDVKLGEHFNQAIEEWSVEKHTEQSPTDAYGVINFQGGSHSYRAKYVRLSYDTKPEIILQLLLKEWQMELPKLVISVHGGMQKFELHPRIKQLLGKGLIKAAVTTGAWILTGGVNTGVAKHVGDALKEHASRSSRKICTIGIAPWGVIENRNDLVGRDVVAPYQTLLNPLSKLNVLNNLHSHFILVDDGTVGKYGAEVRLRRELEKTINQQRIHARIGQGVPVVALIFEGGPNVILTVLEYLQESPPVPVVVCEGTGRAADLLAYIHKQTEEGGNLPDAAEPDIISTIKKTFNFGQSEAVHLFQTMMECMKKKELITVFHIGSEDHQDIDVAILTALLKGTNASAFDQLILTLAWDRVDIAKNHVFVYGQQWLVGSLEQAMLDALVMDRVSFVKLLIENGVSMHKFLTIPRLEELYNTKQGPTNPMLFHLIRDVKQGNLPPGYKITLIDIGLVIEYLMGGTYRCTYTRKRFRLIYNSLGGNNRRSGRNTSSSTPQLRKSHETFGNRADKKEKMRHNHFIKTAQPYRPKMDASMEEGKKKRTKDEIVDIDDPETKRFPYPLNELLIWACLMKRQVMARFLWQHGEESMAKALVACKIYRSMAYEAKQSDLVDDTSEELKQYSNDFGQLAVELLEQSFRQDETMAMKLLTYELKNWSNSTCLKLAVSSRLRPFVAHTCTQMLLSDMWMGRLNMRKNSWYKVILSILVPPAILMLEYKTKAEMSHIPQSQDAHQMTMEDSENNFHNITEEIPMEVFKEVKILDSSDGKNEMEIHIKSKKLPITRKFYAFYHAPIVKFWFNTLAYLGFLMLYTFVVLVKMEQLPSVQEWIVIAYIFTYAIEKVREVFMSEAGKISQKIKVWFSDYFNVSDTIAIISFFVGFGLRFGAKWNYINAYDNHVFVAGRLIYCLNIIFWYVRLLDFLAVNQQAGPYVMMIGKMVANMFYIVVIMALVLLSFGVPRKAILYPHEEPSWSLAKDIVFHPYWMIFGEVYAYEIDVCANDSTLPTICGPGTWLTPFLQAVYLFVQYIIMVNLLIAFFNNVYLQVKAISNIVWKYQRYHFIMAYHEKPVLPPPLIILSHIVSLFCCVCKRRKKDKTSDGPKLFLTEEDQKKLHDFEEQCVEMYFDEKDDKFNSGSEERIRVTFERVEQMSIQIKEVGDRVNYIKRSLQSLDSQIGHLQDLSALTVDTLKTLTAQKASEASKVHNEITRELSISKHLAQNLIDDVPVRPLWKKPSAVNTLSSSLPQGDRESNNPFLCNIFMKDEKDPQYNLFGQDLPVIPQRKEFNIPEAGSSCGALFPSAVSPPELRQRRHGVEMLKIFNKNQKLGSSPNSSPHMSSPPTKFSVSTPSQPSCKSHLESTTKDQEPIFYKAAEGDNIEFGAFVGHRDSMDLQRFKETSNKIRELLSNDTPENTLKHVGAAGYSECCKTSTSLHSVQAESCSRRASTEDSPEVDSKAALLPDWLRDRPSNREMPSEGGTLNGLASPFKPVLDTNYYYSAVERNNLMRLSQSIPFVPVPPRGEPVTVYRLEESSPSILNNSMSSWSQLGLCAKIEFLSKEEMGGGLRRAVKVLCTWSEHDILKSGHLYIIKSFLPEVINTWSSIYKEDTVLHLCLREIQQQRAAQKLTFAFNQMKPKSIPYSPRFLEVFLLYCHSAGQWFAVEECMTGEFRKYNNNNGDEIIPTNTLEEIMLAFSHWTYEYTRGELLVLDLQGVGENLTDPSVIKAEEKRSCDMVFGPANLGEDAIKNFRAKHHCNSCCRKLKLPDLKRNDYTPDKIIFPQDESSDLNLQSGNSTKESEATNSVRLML

SMILES: Cc1c(Cc2ccc(Cl)c(Cl)c2)c(=O)oc2cc(O)ccc12 [Compound M21]
- time able to maintain balance on the Rotarod relative to injured animals treated with vehicle alone [1]: twice the time
- Rotarod performance (mean latency) ([1]; first day post injury, compared to FPI+Vehicle): near wild type levels of performance
- IC50 (TRPM7): 4.97 µM
